US9162988B2, “Therapeutic or prophylactic agent for allergic dermatitis” (Toray Industries, Inc., priority 2007, dated 2015)
Where a name gives a salt, the structure may show the parent alone.

Test system: Jurkat cells
Assay: Inhibitory effect on leukocyte functions: adhesion of Jurkat cells to ligand-expressing cells or ligand-immobilized plate
Assay type: cell-based
Conditions: Homo sapiens, 0.5 h, read-out: IC50 (concentration at which the number of adherent cells is reduced by 50%)
Procedure: Jurkat cells which are a cell line originated from human acute T cell lymphoma were allowed to react with BCECF-AM at 37° C. for 20 minutes to fluorescently label the cells. The fluorescently labelled Jurkat cells were allowed to react with ligand-expressing cells or with a ligand-immobilized plate at 37° C. for 30 minutes. After removing non-adherent cells by washing, 1% NP40 was added to lyse the adherent cells, and fluorescence intensity was measured with Cytofluor 2300 (Millipore). From the obtained fluorescence intensity, the number of adherent cells was calculated. Each test compound was reacted with the Jurkat cells before the beginning of the adhesion reaction. In Table 18, the IC50 of each compound (i.e. the concentration at which the number of adherent cells is reduced by 50%) is shown.

SMILES	IC50 [µM]
CCCCN(c1ccc(/C=C/CC(NC(=O)c2c(Cl)cccc2Cl)C(=O)O)cc1)c1ncccn1 (centres unmarked) [Example 37, (E)-5-(4-Butyl-pyrimidin-2-yl-amino)-phenyl]-2-(2,6-dichlorobenzamido)-pent-4-enoic acid sodium salt]	0.16
O=C(NC(C/C=C/c1ccc(N(CC2CC2)c2ncccn2)cc1)C(=O)O)c1c(Cl)cccc1Cl (centres unmarked) [Example 53, (E)-5-[4-(Cyclopropylmethyl-pyrimidin-2-ylamino)phenyl]-2-(2,6-dichlorobenzamido)pent-4-enoic acid sodium salt]	0.12
CC(C)CN(c1ccc(/C=C/CC(NC(=O)c2c(Cl)cccc2Cl)C(=O)O)cc1)c1ncccn1 (centres unmarked) [Example 55, (E)-2-(2,6-Dichlorobenzamido)-5-[4-(isobutyl-pyrimidin-2-ylamino)phenyl]pent-4-enoic acid sodium salt]	0.42

Test system: BLAB/c mouse
Assay: Inhibitory effect on skin swelling response in mouse allergic dermatitis model
Assay type: in vivo
Conditions: IgE anti-DNP sensitized mouse, DNFB-induced; 50 mg/kg orally before the induction; 24 hours after administration
Procedure: This method was carried out in accordance with the literature “Inflamm. Res., 47, 506-511 (1998)”.
To each BLAB/c mouse (female, 7 weeks old, JAPAN CHARLES RIVER), mouse IgE anti-DNP antibody (2.5 mg/kg, SEIKAGAKU CORPORATION) was intravenously administered to passively sensitize the mouse. Twenty four hours later, 20 μL of 0.38% 2,4-dinitrofluorobenzene (DNFB, SIGMA) dissolved in acetone:olive oil (4:1) was applied to the auricle of the sensitized mouse to induce inflammation. The thickness of the auricle was measured with time till 24 hours after the induction with Digimatic Indicator (Mitutoyo), and the ear swelling ratio was calculated according to the following equation: Ear Swelling Ratio (%)=(A−B)/B×100
A: Thickness of the right auricle after the induction
B: Thickness of the right auricle before the induction
Each test compound was dissolved in phosphate buffered saline and orally administered at a dose of 50 mg/kg before the induction.

SMILES	Inhibition ratio of the ear swelling (swelling response of the auricle) [%]
COCCOc1ccc(/C=C/CC(NC(=O)c2ccc(CNS(=O)(=O)c3cc(Cl)cc(Cl)c3)cc2)C(=O)[O-])cc1.[Na+] (centres unmarked) [(XXII), (E)-2-(4-((3,5-dichlorophenylsulfonamide)methyl)benzamide)-5-(4-(2-methoxyethoxy)phenyl)pent-4-enoic acid sodium salt, reference compound]	2.3
COC1(c2ccc(/C=C/CC(NC(=O)c3c(Cl)cccc3Cl)C(=O)O)cc2)CCOCC1 (centres unmarked) [Example 4, (E)-2-(2,6-Dichlorobenzamido)-5-[4-(4-methoxytetrahydropyran-4-yl)-phenyl]pent-4-enoic acid]	79.8
CCOC1(c2ccc(/C=C/CC(NC(=O)c3c(Cl)cccc3Cl)C(=O)O)cc2)CCOCC1 (centres unmarked) [Example 6, (E)-2-(2,6-Dichlorobenzamido)-5-[4-(4-ethoxytetrahydropyran-4-yl)-phenyl]pent-4-enoic acid]	91.2
CN(c1ccc(/C=C/CC(NC(=O)c2c(Cl)cccc2Cl)C(=O)O)cc1)c1ncccn1 (centres unmarked) [Example 22, (E)-2-(2,6-Dichlorobenzamido)-5-[4-(methyl-pyrimidin-2-ylamino)phenyl]pent-4-enoic acid]	84.7
CC(C)N(c1ccc(/C=C/CC(NC(=O)c2c(Cl)cccc2Cl)C(=O)O)cc1)c1ncccn1 (centres unmarked) [Example 28, (E)-2-(2,6-Dichlorobenzamido)-5-[4-(isopropyl-pyrimidin-2-ylamino)phenyl]pent-4-enoic acid]	98.5
COC1(c2ccc(/C=C/C[C@H](NC(=O)c3c(Cl)cccc3Cl)C(=O)O)cc2)CCOCC1 [Example 77, (S,E)-2-(2,6-Dichlorobenzamido)-5-[4-(4-methoxytetrahydropyran-4-yl)-phenyl]pent-4-enoic acid]	85.8
COC1(c2ccc(/C=C/C[C@H](NC(=O)c3c(Cl)cccc3Cl)C(=O)[O-])cc2)CCOCC1.[Na+] [Example 78, (S,E)-2-(2,6-Dichlorobenzamido)-5-[4-(4-methoxytetrahydropyran-4-yl)-phenyl]pent-4-enoic acid sodium salt]	62.5
CN(c1ccc(/C=C/C[C@H](NC(=O)c2c(Cl)cccc2Cl)C(=O)O)cc1)c1ncccn1 [Example 80, (S,E)-2-(2,6-Dichlorobenzamido)-5-[4-(methyl-pyrimidin-2-ylamino)phenyl]pent-4-enoic acid]	86.3
CN(c1ccc(/C=C/C[C@H](NC(=O)c2c(Cl)cccc2Cl)C(=O)[O-])cc1)c1ncccn1.[Na+] [Example 81, (S,E)-2-(2,6-Dichlorobenzamido)-5-[4-(methyl-pyrimidin-2-ylamino)phenyl]pent-4-enoic acid sodium salt]	97.9
CC(C)N(c1ccc(/C=C/C[C@H](NC(=O)c2c(Cl)cccc2Cl)C(=O)O)cc1)c1ncccn1 [Example 83, (S,E)-2-(2,6-Dichlorobenzamido)-5-[4-(isopropyl-pyrimidin-2-ylamino)phenyl]pent-4-enoic acid]	57.4
CC(C)N(c1ccc(/C=C/C[C@H](NC(=O)c2c(Cl)cccc2Cl)C(=O)[O-])cc1)c1ncccn1.[Na+] [Example 84, (S,E)-2-(2,6-Dichlorobenzamido)-5-[4-(isopropyl-pyrimidin-2-ylamino)phenyl]pent-4-enoic acid sodium salt]	66.9
